Assay results published in patent US11603387B2, “SOCS mimetics for the treatment of diseases” (UNIVERSITY OF FLORIDA RESEARCH FOUNDATION, INC., priority 2014, dated 2023).

Legend:
[1] = tested on: SOCS1+/+ or SOCS1+/− CD4+CD25− T cells; assay: CD4+ T cell activation (CD25 expressing cells, flow cytometry) after αCD3 stimulation; format: cell-based, mouse; settings: αCD3 + SOCS1-KIR peptide (20 μM), 72 h
Protocol: FIGS. 5A-5D. […] (FIGS. 5A and 5B) SOCS1^+/+ or SOCS1^+/− CD4^+CD25^− T cells were stimulated with αCD3 antibodies alone or with αCD3+SOCS1-KIR peptide (20 μM) for 72 h. (FIG. 5A) CD25 expressing cells were assessed by flow cytometry. Results are representative of 4 independent experiments. (FIG. 5B) Proliferation was assessed by CFSE labeling and flow cytometry, cell counts, and ^3[H] thymidine incorporation. n=4. (FIGS. 5C and 5D) SOCS1^+/+ or SOCS1^+/− CD4^+CD25^− T cells were placed under Th17 inducing conditions in the absence or presence of SOCS1-KIR peptide (20 μM) (FIG. 5C) IFNγ expression, relative to β-actin., was assessed by qPCR (left) and ELISA (right) (n=4). (FIG. 5D) pSTAT1 and STAT1 protein expressions were assessed by western blotting. […]
CD4^+ T cell proliferation was assessed by CFSE staining, ^3H thymidine incorporation, and absolute cell counts. […] After 72 h of incubation, cell cultures were either pulsed with 0.5 mCi ^3H thymidine (GE Healthcare; Arlington Heights, Ill.) or counted and harvested for assessment by flow cytometry. In cultures analyzed by flow cytometry, T lymphocytes were labeled with 10 μg/ml CFSE prior to culture as previously described (Cozzo et al. 2003). ^3H thymidine pulsed T lymphocytes were harvested 16-18 hours after initial pulse followed by the ^3H thymidine incorporation assessment using a Beckman LS3801 Liquid Scintillation System. […]

[2] = tested on: SOCS1+/+ or SOCS1+/− CD4+CD25− T cells; assay: CD4+ T cell proliferation (CFSE labeling, cell counts, 3H thymidine incorporation); format: cell-based, mouse; settings: αCD3 + SOCS1-KIR peptide (20 μM), 72 h
Protocol: FIGS. 5A-5D. […] (FIGS. 5A and 5B) SOCS1^+/+ or SOCS1^+/− CD4^+CD25^− T cells were stimulated with αCD3 antibodies alone or with αCD3+SOCS1-KIR peptide (20 μM) for 72 h. (FIG. 5A) CD25 expressing cells were assessed by flow cytometry. Results are representative of 4 independent experiments. (FIG. 5B) Proliferation was assessed by CFSE labeling and flow cytometry, cell counts, and ^3[H] thymidine incorporation. n=4. (FIGS. 5C and 5D) SOCS1^+/+ or SOCS1^+/− CD4^+CD25^− T cells were placed under Th17 inducing conditions in the absence or presence of SOCS1-KIR peptide (20 μM) (FIG. 5C) IFNγ expression, relative to β-actin., was assessed by qPCR (left) and ELISA (right) (n=4). (FIG. 5D) pSTAT1 and STAT1 protein expressions were assessed by western blotting. Results are representative of 4 independent experiments. Statistical comparisons were performed using Mann-Whitney U test. (*P<0.05). iTh17=Th17 inducing conditions, WT=SOCS1^+/+, and HT=SOCS1^+/−.
CD4^+ T cell proliferation was assessed by CFSE staining, ^3H thymidine incorporation, and absolute cell counts. MACS purified CD4^+CD25^− T cells, isolated from LN and spleen suspension, were stimulated in triplicate (96 well round-bottom plate; 1×10^5 cells/well) with 10 μg/ml anti-CD3 (BD Pharmingen; clone: 145.2C11) alone or in addition to 1.5 μg/ml anti-CD28 (BD Pharmingen; clone 37.51) at 37° C. (5% CO2) in RPMI 1640 (Cellgro; 10-040-CV) containing 10% FBS (INVITROGEN™ GIBCO®), 1% antibiotic/antimycotic (Herndon, Va.), and 50 μM β-ME (MP Biomedicals, Solon, Ohio). After 72 h of incubation, cell cultures were either pulsed with 0.5 mCi ^3H thymidine (GE Healthcare; Arlington Heights, Ill.) or counted and harvested for assessment by flow cytometry. In cultures analyzed by flow cytometry, T lymphocytes were labeled with 10 μg/ml CFSE prior to culture as previously described (Cozzo et al. 2003). ^3H thymidine pulsed T lymphocytes were harvested 16-18 hours after initial pulse followed by the ^3H thymidine incorporation assessment using a Beckman LS3801 Liquid Scintillation System. […]

Sequence: DTHFRTFRSHSDYRRI (SOCS1-KIR peptide) [SOCS1 mimetic peptide corresponding to the KIR region of SOCS1]
- αCD3 mediated CD25 up-regulation ([1]; SOCS1+/− CD4+ T lymphocytes): sufficient to inhibit excessive αCD3 mediated CD25 up-regulation
- CD25 expression ([1]; WT (SOCS1+/+) CD4+ T lymphocytes): limited effects on CD25 expression
- Activation and proliferation of αCD3 treated SOCS1+/− CD4+ T lymphocytes relative to WT ([2]; SOCS1+/− cells): to levels comparable to WT receiving αCD3 stimulation
- Proliferation by CFSE labeling ([2]; WT and SOCS1+/− T lymphocytes): reduced proliferation
- Absolute cell counts and 3H thymidine incorporation [2]: inhibition of T lymphocyte proliferation
